{"source": "paper PMC6222779", "about": "“Enzyme-Site Blocking Combined with Optimization of Molecular Docking for Efficient Discovery of Potential Tyrosinase Specific Inhibitors from Puerariae lobatae Radix” (Molecules : A Journal of Synthetic Chemistry and Natural …, 2018)", "key": {"[1]": {"biological_target": "T1, TYR (Agaricus bisporus, UniProt C7FF04)", "test": "TYR-site blocking affinity ultrafiltration screening with HPLC", "settings": "specific ligand when (Ab − Ae)/Ab ≥ 50% and (Ac − Ae)/Ac ≥ 50%; TYR 0.1 mg/mL, 30 °C, 30 min, 5000× g; peaks of PLR extract", "protocol": "PLR-extract solution (100 µL) mixed with 100 µL diluted TYR solution and incubated at the best UF parameters. The unbound compounds can pass through the ultrafiltration membrane into the filtrates (F1), whereas the enzyme-ligand complexes remained in the chamber. After washing the retained complexes twice with 200 µL PBS (pH 6.8) to remove the residual unbound compounds, 200 µL methanol (80% (v/v)) was added into chamber and ultrasonic for 15 min to disrupt the complexes and release the ligands. The mixture was then centrifuge at 5000× g for 15 min, the filtrates (F2) containing the selected compounds were passed through a 0.45 µm filter membrane prior to HPLC analysis. For blank groups, PBS (pH 6.8) containing 2% DMSO was used to incubate with the TYR solution, followed by performance of the protocol described here. All experiments were performed in triplicate.\nThe PLR extract solution was added to the reaction solution and the protocol described in Section 2.5 was followed prior to HPLC analysis. All experiments were performed in triplicate."}, "[2]": {"biological_target": "T1, TYR", "test": "TYR inhibit assay (spectrophotometry, L-tyrosine substrate)", "assay_type": "biochemical", "parameters": "purchased Sigma-Aldrich", "description": "TYR inhibition by PLR extract solution, selected compounds and Kojic acid was analyzed by spectrophotometry. The solution comprised 50 µL of the mixed ligand solution (the corresponding ligand standards were diluted 50-fold with PBS) incubated with 50 µL TYR solution (0.1 U/mL ) for 30 min at room temperature, followed by the addition of 100 µL L-tyrosine (0.4 mM) and incubation for another 30 min at 30 °C. Absorbance was measured in triplicate at 480 nm and inhibition ratios were calculated from the mean of the triplicate observations according to Equation (2):(2) Inhibitory Ratio (%) = Ab−Ae/Ab × 100%, where Ab and Ae represented the absorption of blank groups and experiment groups, respectively."}, "[3]": {"settings": "TYR inhibitory activity, L-tyrosine 0.4 mM, absorbance at 480 nm, triplicate, read-out: IC50 ± SD"}}, "note": "Read-outs that look alike come from different tables or passages of the source."}
{"smiles": "O=c1c(-c2ccc(O)cc2)coc2cc(O[C@@H]3O[C@H](CO)[C@@H](O)[C@H](O)[C@H]3O)ccc12", "note": "[Daidzin, daidzin]", "values": [{"measurement": "binding to TYR in ultrafiltration with kojic acid site blocking", "setting": "[1]", "result": "potential specific TYR ligands"}, {"measurement": "IC50", "setting": "[2]", "result": "> 500", "unit": "µM"}]}
{"smiles": "O=c1c(-c2ccc(O)cc2)coc2cc(O[C@@H]3O[C@H](CO)[C@@H](O)[C@H](O)[C@H]3O)cc(O)c12", "note": "[Genistin, genistin]", "values": [{"measurement": "binding to TYR in ultrafiltration with kojic acid site blocking", "setting": "[1]", "result": "potential specific TYR ligands"}, {"measurement": "IC50", "setting": "[2]; [3]", "result": "> 500", "unit": "µM"}]}
{"smiles": "O=c1c(-c2ccc(O)cc2)coc2c(C3OC(COC4OCC(O)(CO)C4O)C(O)C(O)C3O)c(O)ccc12", "note": "(stereo not shown) [Mirificin, mirificin]", "values": [{"measurement": "binding to TYR in ultrafiltration with kojic acid site blocking", "setting": "[1]", "result": "potential specific TYR ligands"}, {"measurement": "IC50", "setting": "[2]; [3]", "result": "12.7 ± 2.77", "unit": "µM"}]}
{"smiles": "O=c1c(-c2ccc(O)cc2)coc2c([C@@H]3O[C@H](CO)[C@@H](O)[C@H](O)[C@H]3O)c(O)ccc12", "note": "[Puerarin, puerarin]", "values": [{"measurement": "binding to TYR in ultrafiltration with kojic acid site blocking", "setting": "[1]", "result": "potential specific TYR ligands"}, {"measurement": "IC50", "setting": "[2]", "result": "9.83 ± 1.45", "unit": "µM"}]}
{"smiles": "O=c1c(-c2ccc(O)cc2)coc2c(C3OC(COC4OCC(O)(CO)C4O)C(O)C(O)C3O)c(O)cc(O)c12", "note": "(stereo not shown) [compound 7, genistein-8-C-apiosyl(16)-glucoside]", "values": [{"measurement": "binding to TYR in ultrafiltration with kojic acid site blocking", "setting": "[1]", "result": "not recognized as specific TYR inhibitors"}]}
{"smiles": "COc1ccc2c(c1)OC(=O)C=C(c1ccc(O)cc1)C(OC1OC(CO)C(O)C(O)C1O)C2", "note": "(stereo not shown) [compound 11, sophoroside A]", "values": [{"measurement": "binding to TYR in ultrafiltration with kojic acid site blocking", "setting": "[1]", "result": "not recognized as specific TYR inhibitors"}]}
